Measurements published in paper PMC10482301 (PLOS Neglected Tropical Diseases, 2023).

Legend:
[1] = target: T1, UDP-glucose 6-dehydrogenase (HsUGDH) (Homo sapiens, UniProt O60701); experiment: spectrophotometric assay, helper enzyme inhibited (no numbers shown); assay type: biochemical
T1 construct: gene UGDH; recombinant HsUGDH with N-terminal Strep-tag and four-residue linker
T1 sequence (O60701 1-494): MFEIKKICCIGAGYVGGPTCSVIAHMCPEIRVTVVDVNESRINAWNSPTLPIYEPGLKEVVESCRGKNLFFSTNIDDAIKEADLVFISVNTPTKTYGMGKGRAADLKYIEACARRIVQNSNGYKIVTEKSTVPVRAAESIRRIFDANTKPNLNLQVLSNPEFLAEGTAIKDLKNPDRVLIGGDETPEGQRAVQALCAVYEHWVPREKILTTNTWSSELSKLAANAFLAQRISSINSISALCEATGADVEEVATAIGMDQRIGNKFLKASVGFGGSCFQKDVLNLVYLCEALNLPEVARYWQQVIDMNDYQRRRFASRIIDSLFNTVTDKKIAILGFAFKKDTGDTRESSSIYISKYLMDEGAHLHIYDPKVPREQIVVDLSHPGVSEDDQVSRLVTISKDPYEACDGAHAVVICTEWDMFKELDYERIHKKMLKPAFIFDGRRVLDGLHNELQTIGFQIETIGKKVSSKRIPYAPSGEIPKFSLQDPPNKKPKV

[2] = target: T2, UDP-glucose 4-epimerase (EhGalE) (Entamoeba histolytica, UniProt C4M746); experiment: RP-HPLC of UDP-Gal to UDP-Glc conversion by purified recombinant enzyme after […] min preincubation; assay type: biochemical
T2 construct: gene EHI_192050; full-length recombinant EhGalE (XP_650346) with N-terminal Strep-tag and Gly-Gly-Gly-Ser linker
T2 sequence (C4M746 1-341): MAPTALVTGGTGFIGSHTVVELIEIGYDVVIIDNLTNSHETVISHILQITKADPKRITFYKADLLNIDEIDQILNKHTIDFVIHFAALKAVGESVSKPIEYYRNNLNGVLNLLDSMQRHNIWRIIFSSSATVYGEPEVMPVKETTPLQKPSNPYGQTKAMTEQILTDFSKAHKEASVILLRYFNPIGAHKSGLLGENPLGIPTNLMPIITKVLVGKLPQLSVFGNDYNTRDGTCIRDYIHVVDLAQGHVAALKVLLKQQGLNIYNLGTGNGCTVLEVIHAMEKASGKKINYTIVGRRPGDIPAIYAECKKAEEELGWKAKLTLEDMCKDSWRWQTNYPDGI

C=C(CC)C(=O)c1ccc(OCC(=O)O)c(Cl)c1Cl [ethacrynic acid]
spectrophotometric assay, helper enzyme inhibited (no numbers shown) [1]: the helper enzyme UGDH was inhibited by all three compounds

CC/C(=C(/CC)c1ccc(O)cc1)c1ccc(O)cc1 [diethylstilbestrol]
spectrophotometric assay, helper enzyme inhibited (no numbers shown) [1]: the helper enzyme UGDH was inhibited by all three compounds

O=c1c2ccccc2[se]n1-c1ccccc1 [ebselen]
IC50 [2]: 2190 nM
spectrophotometric assay, helper enzyme inhibited (no numbers shown) [1]: the helper enzyme UGDH was inhibited by all three compounds
